According to ChEMBL document CHEMBL2021861, “Structure-activity relationship study of opiorphin, a human dual ectopeptidase inhibitor with antinociceptive properties” (J Med Chem, 2012):
Numbered stars: 1 amine (or outer) side, 2 acyl side, 3 side chain; on linkers, the order of the positions; unused ones are H or OH. Square brackets hold non-standard residues; d marks the D form. Peptide text beside a SMILES is read from it. β3hPhg = O=C(C[C@@H](N[*:1])c1ccccc1)[*:2]; Phg = N[C@H](C(=O)O)c1ccccc1

Columns and labels:
[1] = target: Neprilysin (Homo sapiens, UniProt P08473); assay: Inhibition of human recombinant NEP ectopeptidase activity using Abz-dRGL-(EDDnp) as substrate preincubated for 10 mins with substrate by fluorimetric analysis
Neprilysin, sequence (P08473 whole entry): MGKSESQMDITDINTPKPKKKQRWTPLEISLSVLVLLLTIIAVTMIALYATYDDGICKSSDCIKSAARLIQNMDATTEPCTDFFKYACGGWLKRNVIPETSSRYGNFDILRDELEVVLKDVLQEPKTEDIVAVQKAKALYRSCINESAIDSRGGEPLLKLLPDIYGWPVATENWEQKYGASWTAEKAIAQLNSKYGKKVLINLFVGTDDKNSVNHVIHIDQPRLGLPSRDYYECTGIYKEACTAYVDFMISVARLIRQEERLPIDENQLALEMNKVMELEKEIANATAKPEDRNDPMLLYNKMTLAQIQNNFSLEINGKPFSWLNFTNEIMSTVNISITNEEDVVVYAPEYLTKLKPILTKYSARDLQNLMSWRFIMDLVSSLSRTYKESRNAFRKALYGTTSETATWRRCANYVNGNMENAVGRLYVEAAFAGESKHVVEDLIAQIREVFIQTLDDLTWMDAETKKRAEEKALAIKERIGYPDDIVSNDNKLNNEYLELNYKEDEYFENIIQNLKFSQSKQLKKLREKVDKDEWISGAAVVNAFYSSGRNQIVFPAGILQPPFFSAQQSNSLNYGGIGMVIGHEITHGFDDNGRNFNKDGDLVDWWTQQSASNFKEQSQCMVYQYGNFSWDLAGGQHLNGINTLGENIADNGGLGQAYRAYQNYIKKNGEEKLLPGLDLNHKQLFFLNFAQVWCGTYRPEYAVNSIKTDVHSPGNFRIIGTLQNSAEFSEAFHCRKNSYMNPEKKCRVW

[2] = target: Aminopeptidase N (Homo sapiens, UniProt P15144); assay: Inhibition of human recombinant AP-N ectopeptidase activity using alanine-MCA as substrate preincubated for 10 mins with substrate by fluorimetric analysis
Aminopeptidase N, sequence (P15144 whole entry): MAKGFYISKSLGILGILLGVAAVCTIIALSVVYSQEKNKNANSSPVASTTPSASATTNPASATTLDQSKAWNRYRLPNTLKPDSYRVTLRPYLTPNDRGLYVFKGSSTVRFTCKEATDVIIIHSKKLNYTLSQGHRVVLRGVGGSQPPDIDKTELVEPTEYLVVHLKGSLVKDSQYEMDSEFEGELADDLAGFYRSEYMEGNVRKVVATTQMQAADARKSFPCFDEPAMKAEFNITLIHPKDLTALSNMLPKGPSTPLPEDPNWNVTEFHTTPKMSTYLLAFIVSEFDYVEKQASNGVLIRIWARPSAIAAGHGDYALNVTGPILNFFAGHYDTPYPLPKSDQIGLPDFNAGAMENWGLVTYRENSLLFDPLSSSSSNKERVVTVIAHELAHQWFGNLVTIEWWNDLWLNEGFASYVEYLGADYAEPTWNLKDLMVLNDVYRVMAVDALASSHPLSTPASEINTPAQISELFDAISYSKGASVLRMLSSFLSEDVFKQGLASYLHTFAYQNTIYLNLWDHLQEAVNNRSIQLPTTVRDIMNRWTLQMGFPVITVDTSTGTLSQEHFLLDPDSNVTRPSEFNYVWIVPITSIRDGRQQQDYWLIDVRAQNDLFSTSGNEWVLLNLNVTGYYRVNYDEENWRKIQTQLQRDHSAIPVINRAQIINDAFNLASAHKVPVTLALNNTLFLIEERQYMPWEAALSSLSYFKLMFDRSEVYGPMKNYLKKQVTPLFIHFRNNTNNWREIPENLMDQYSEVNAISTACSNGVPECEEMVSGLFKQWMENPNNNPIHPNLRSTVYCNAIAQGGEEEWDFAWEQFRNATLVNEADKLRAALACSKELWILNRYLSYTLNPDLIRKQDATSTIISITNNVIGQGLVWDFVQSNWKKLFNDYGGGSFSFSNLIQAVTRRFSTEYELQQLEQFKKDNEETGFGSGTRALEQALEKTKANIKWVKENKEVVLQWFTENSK

Molecule	IC50 [1] [µM]	IC50 [2] [µM]
N=C(N)NCCC[C@H](NC(=O)[C@H](CO)NC(=O)[C@@H](NC(=O)[C@H](CCCNC(=N)N)NC(=O)[C@@H](N)CCC(N)=O)c1ccccc1)C(=O)O (H-QR[Phg]SR-OH)	> 100	–
NC(=O)CC[C@H](N)C(=O)N[C@@H](CCCN=C(N)N)C(=O)N[C@H](CC(=O)N[C@@H](CO)C(=O)N[C@@H](CCCN=C(N)N)C(=O)O)c1ccccc1 (H-QR[β3hPhg]SR-OH)	> 100	> 70
H-ARFSR-OH	> 70	–
H-QRASR-OH	> 100	> 70
H-QRFSA-OH	–	> 70
